# Laboratory results from US5703056A, “Non-invasive imaging of gene transfer” (priority 1995, dated 1997).
# Like-named read-outs stand apart in the source and are kept apart here.
# Assays:
# RG2 cells = assay: Ganciclovir sensitivity assay (methyl-[3H]-thymidine accumulation, percent of control); type: cell-based; conditions: Rattus norvegicus; naive RG2 cells; read-out: ganciclovir ED50
# Method: (§1) Sensitivity to ganciclovir and selection of "high" and "low" sensitivity clones. […] Following one day of growth, the culture medium of RG2TK+ and RG2 cells in Costar™ 96-well plates was replaced with ganciclovir™-containing medium (Cytovene™; Syntax Laboratories, Inc.; Palo Alto, Calif.) in the following concentrations: 3, 1, 0.6, 0.3, 0.1, 0.06, 0.03, 0.01, 0,006, 0.003, 0.001, 0.0006, 0.0003, 0.0001, 0.00006 mg/ml and ganciclovir™-free control media. The ganciclovir™-containing and control incubation media were changed daily. […] Radioactivity measured in each ganciclovir™-containing well was expressed as a percent of control (ganciclovir™-free) activity.
# RG2TK+ cells = assay: as above; type: cell-based, rat; conditions: for IC50: Rattus norvegicus, read-out: ganciclovir ED50
# Method: Transduction of the HSV1-TK gene into RG2 cells. The STK retrovirus was obtained from filtered (0.1 μm) supernatants of gp-STK-A2 producer cell line cultures grown from a 50% confluent monolayer over 24 hours in Dulbecco's high-glucose medium with 10% bovine serum. Transduction of RG2 cells was accomplished by exposing the cell monolayer to the filtrate for 8 hours in the presence of Polybrene™ (8 μg/ml). Following a 24 hour incubation in standard medium, a selection medium containing Geneticin™ disulfate (800 μg/ml) was used to eliminate cells not expressing the neomycin resistance gene. The selection medium was changed daily to remove dead cells. After 7 days, a bulk culture of transduced RG2 cells (RG2TK+) was harvested for further propogation.
# as §1
# HSV1-TK = HSV1-TK (Human alphaherpesvirus 1 strain 17, UniProt P0DTH5); assay: Accumulation of radiolabelled marker substrates in RG2TK+ transduced and RG2 wild-type cells, normalized to TdR; type: cell-based, herpes simplex virus
# Sequence of HSV1-TK (P0DTH5 whole entry): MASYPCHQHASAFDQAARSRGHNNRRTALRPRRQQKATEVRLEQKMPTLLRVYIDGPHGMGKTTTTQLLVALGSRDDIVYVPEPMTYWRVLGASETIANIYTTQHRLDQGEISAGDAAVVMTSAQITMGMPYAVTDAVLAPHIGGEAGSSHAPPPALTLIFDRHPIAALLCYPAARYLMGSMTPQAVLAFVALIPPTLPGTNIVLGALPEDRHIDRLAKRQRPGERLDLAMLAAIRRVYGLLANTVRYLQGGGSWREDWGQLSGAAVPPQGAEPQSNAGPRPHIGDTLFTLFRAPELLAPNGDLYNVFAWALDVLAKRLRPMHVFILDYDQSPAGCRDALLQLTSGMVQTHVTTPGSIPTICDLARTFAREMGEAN
# Method: Source of radiolabelled "marker substrates". […] No carrier-added 5-[^123 I]-deoxyuridine (IUdR) was prepared by reacting 2-deoxyuridine (UdR) with carrier-free ^123 I-labelled sodium iodide in an iodogen coated reaction vial.
# Comparison of "marker substrates" for identifying HSV1-tk gene expression in tissue culture. […] Each of these substrates were developed for or used as an anti-viral agent; they are phosphorylated by HSV1-TK and can be radiolabelled for noninvasive imaging.
# Wild-type (nontransduced) RG2 cells were studied as a reference control. […] The cells were dislodged from the Petri dishes with a soft scraper, poured into 15 ml conical tubes, centrifuged and the medium aspirated. The tubes were cut to facilitate removing cells; they were blotted, placed in pre-weighed vials, weighed and prepared for counting. Samples were assayed for ^3 H- and ^14 C-radioactivity using a Packard B1600 TriCarb beta spectrometer using dual-channel and external standard splash and quench correction techniques. The medium was also counted before and following incubation. The data was expressed as a harvested cell-to-medium concentration ratio (dpm/g cells.div.dpm/ml medium).
# Data analysis. […] These two related measures are useful to evaluate the intensity of the images (e.g., high "sensitivity") and the ability to differentiate between HSV1-TK and endogenous-TK in the images (e.g., high "selectivity"). The "selectivity" measure is not interpreted as a relative sensitivity (i.e., a value of 1 indicating equal sensitivity) of the substrate to HSV1-TK vs. endogenous-TK. […] They are intended for the direct comparison of substrates only.
smiles,measurement,setting,value
"Nc1nc2c(ncn2COC(CO)CO)c(=O)[nH]1 [ganciclovir, 9-(1,3-dihydroxy-2-propoxymethyl)-guanine]",IC50,RG2 cells,200 µg/mL
same,fold more sensitive to ganciclovir compared to bulk RG2TK+ cells,"RG2TK+ cells; ""high"" sensitivity RG2TK+ clones (clone #16) vs bulk RG2TK+",5 fold
same,fold less sensitive to ganciclovir compared to bulk RG2TK+ cells,"RG2TK+ cells; ""low"" sensitivity RG2TK+ clones vs bulk RG2TK+",roughly 30 fold
same,IC50,"RG2TK+ cells; ""high-sensitivity"" RG2TK+ clone #16",~0.2 µg/mL
same,IC50,"RG2TK+ cells; ""low-sensitivity"" RG2TK+ clone #32",~30 µg/mL
same,IC50,RG2TK+ cells; bulk culture of transduced RG2TK+ cells,1 µg/mL
same,fold more sensitive to ganciclovir than RG2 cells,RG2TK+ cells; bulk RG2TK+ cells vs wild-type RG2 cells,approximately 200 fold
same,fold more sensitive to ganciclovir than wild-type RG2 cells,RG2TK+ cells; high-sensitivity RG2TK+ clone #16 vs wild-type RG2,approximately 1000 fold
same,Selectivity+ Sensitivity*/(substrate/TdR) for RG2,HSV1-TK; Data from FIG. 5,0.143
same,Sensitivity* Δ(substrate/TdR)/Δ(HSV1TK mRNA/S28 RNA IOD),HSV1-TK; Data from FIG. 5,0.0004
same,accumulation of ganciclovir by RG2TK+ cells compared to that of FIAU,HSV1-TK; RG2TK+ cells,less than 5%
same,accumulation of ganciclovir by RG2TK+ cells compared to that of IUdR,HSV1-TK; RG2TK+ cells,< 3%
same,accumulation in bulk RG2TK+ cells relative to wild-type RG2 cells,"HSV1-TK; normalized to TdR, FIGS. 4 and 5B",5.6 fold
